Data: ChEMBL document CHEMBL4400577, “Fragment-based Discovery of a Small-Molecule Protein Kinase C-iota Inhibitor Binding Post-kinase Domain Residues” (ACS Med Chem Lett, 2019)
≈ marks a conversion by molar mass, not a printed value.

Columns and labels:
[1] = biological target: T1, Protein kinase C iota type (Homo sapiens, UniProt P41743); test: Inhibition of recombinant human full length N-terminal GST-fused PKCi (1 to 587 residues) expressed in baculovirus expression system using 5-FAM-RFARKGSLRQKNV as substrate measured after 60 mins by caliper microfluidic mobility shift assay
T1 sequence (P41743 whole entry): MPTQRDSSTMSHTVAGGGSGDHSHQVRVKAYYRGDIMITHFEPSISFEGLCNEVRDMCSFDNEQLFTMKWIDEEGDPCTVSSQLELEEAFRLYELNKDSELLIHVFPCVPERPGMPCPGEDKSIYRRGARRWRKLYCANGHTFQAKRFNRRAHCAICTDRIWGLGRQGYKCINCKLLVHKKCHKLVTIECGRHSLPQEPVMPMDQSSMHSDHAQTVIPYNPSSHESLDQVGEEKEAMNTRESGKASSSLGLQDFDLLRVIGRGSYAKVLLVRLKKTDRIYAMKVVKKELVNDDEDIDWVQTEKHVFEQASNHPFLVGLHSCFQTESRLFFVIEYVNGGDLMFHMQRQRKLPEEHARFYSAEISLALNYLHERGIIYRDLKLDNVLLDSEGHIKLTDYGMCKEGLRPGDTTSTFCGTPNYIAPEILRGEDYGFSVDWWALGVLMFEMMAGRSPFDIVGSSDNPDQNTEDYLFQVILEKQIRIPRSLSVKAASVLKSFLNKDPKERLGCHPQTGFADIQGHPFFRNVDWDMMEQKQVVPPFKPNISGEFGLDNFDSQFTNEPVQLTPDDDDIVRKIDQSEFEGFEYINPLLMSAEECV

Huh-7 = test: Antiproliferative activity against human HuH7 cells assessed as cell growth inhibition measured after 72 hrs by CellTiter-Glo luminescent assay; type: functional; details: Huh-7, 72 h
[2] = Solubility of the compound at pH 7.4; type: physicochemical; details: buffer
[3] = Clearance in human liver microsomes; type: ADME, Microsome; details: read-out: CLH
[4] = Permeability across apical to basolateral side in human Caco2 cells; type: ADME, cell-based; details: Caco-2
[5] = Clearance in mouse liver microsomes; type: ADME, Microsome; details: read-out: CLH

Row | SMILES | IC50 [1] | also measured
1 | Nc1ncccc1C(=O)Nc1ccncc1 | 22 µM | 
2 | Nc1ncc(-c2cccc(N3CCNCC3)c2)nc1C(=O)Nc1ccncc1 | 0.27 µM | 
3 | Nc1ncc(-c2ccccc2)cc1C(=O)Nc1ccncc1 | 32 µM | 
4 | Nc1nccnc1C(=O)NCc1ccncc1 | > 384 µM | 
5 | Nc1nccnc1C(=O)Nc1ccc2[nH]ccc2c1 | 34 µM | 
6 | N[C@H](CNc1nc(-c2ccncc2)nc2sc3c(c12)CCCC3)Cc1ccccc1 |  | GI50 (Huh-7): 3.1 µM
7 | Nc1ncc(Br)cc1C(=O)Nc1ccncc1 | > 384 µM | 
8 | NCc1cccc(-c2cnc(N)c(C(=O)Nc3ccncc3)c2)c1 | 0.71 µM | 
9 | Nc1ncc(-c2cccc(N3CCNCC3)c2)cc1C(=O)Nc1ccncc1 | 0.34 µM | solubility [2]: 164 µg/mL (≈ 438 µM); microsomal CLint [3]: 5.1 µL/min/mg; Papp A→B [4]: 0.28 ×10⁻⁶ cm/s; GI50 (Huh-7): 11.3 µM; microsomal CLint [5]: 71 µL/min/mg
10 | NC(=O)c1cccc(-c2cnc(N)c(C(=O)Nc3ccncc3)c2)c1 | > 384 µM | 

Second part, led by results:

Row | IC50 [1] | SMILES | also measured
11 | 42.2 µM | Nc1nccnc1C(=O)Nc1cccc(C2CC2)c1 | 
12 | 263 µM | Cc1cc(NC(=O)c2nccnc2N)cc(C)n1 | 
13 | 76 µM | Nc1nccnc1C(=O)Nc1ccc(O)cc1 | 
14 | 19.6 µM | CCc1cc(NC(=O)c2nccnc2N)ccn1 | 
15 | 24 µM | CC(C)(C)c1cc(NC(=O)c2nccnc2N)ccn1 | 
16 | 23 µM | Nc1nccnc1C(=O)Nc1ccncc1 | 
17 | 77 µM | Nc1nccnc1C(=O)Nc1cccnc1 | 
18 | > 384 µM | Nc1nccnc1C(=O)Nc1ccncc1Br | 
19 | > 384 µM | Nc1nccnc1C(=O)Nc1ccnc2[nH]ccc12 | 
20 | > 384 µM | Nc1nccnc1C(=O)Nc1ccnc(Br)c1 | 
